Experimental data reported in patent US20250134890A1, “ANTIMALARIAL HEXAHYDROPYRIMIDINE ANALOGUES” (UCB BIOPHARMA SRL, priority 2022, published 2025).
Structures can show the parent of a compound that is named as a salt.

The compounds below were run on Plasmodium falciparum: 3D7 strain (assay: P. falciparum 3D7 asexual blood stage assay (SYBR green readout)). Details: Plasmodium falciparum, 3D7, Erythrocyte, 72 h, P. falciparum 3D7 in human erythrocytes, 72 h incubation, SYBR green fluorescence.
Type: cell-based
Source text: The compounds of the present invention are potent inhibitors of the growth and propagation of the Plasmodium falciparum parasite in human blood.
The assay used to measure the effect of test compounds on a bloodstream stage of Plasmodium falciparum: 3D7 strain employs SYBR green as the readout. This is a dye that binds to double stranded deoxyribonucleic acid (DNA) with a resulting increase in fluorescence, allowing detection of P. falciparum DNA in infected erythrocytes, and thereby providing a measure of parasite growth and propagation.
Erythrocytes (A+blood) were prepared for both parasite culture and assay by washing 4 times with incomplete media (15.9 g RPMI 1640 (25 mM HEPES, L-glutamine), 1 g NaHCO3, 2 g glucose, 400 μL gentacin (500 mg/mL), 2 mL hypoxanthine solution (13.6 g/L in 0.1M NaOH pH 7.3) in 1 litre of media). The cells were centrifuged at 1800 g for 5 minutes, before decanting the supernatant and re-suspending in fresh incomplete media. On the final wash, the cells were re-suspended in complete media (incomplete media with 5 g/L AlbumaxII), and centrifuged at 1800 g for 3 minutes. This cell sediment was treated as 100% haematocrit.
P. falciparum 3D7 was cultured in erythrocytes at 5% haematocrit in complete media at 37° C. (1% O2, 3% CO2, balance N2). Cultures were split on a weekly basis to achieve a 1% parasitaemia in erythrocites at 5% haematocrit in fresh media. Culture media is replaced by fresh media every other day (2 times during the week).
On day 1, test compounds were added to assay plates using Echo dispensing technology ([…] and 20 points titration). 50 nL of each compound dilution was added to 50 μL of culture (5% haematocrit, 0.5% parasitaemia) and incubated for 72 h at 37° C. (1% O2, 3% CO2, balance N2). Final concentrations of test compounds ranged from 50,000 nM to 15 nM, in […].
On day 4, 10 μL SYBR green (Invitrogen S7563 supplied as 10,000×concentrate in DMSO) pre-diluted to 3×concentrate with Lysis buffer (20 mM Tris pH 7.9, 5% EDTA, 0.16% w/v, 1.6% TX100 v/v) was added to the cultures and incubated in the dark, overnight, at room temperature.
On day 5, fluorescent signal was measured using a BioTek plate reader (excitation 485 nm, emission 528 nm). All data were processed using IDBS ActivityBase. Raw data were converted into percent inhibition through linear regression by setting the high inhibition control (mefloquine) as 100% and the no inhibition control (DMSO) as 0%. Quality control criteria for passing plates were as follows: Z′>0.5, S:B>3, % CV(no inhibition control)<15. The formula used to calculate Z′ is: […]
All EC50 curve fitting was undertaken using the following bi-phasic two site dose response using XLfit model 300 (IDBS):
where A=100 minus the top of the upper curve 1 and the bottom of lower curve; B=Hill slope; log(C)=IC50 concentration at lower site; log(D)=IC50 concentration at upper site; x=inhibitor concentration; and y=% inhibition.
With `C[C@@]1(c2cccc(-c3cnn(CC(F)(F)F)c3)c2Cl)CC(=O)N([C@@H]2CCC(F)(F)[C@H](O)C2)C(=N)N1` (relative stereo) [Example 84, (6S)-6-{2-Chloro-3-[1-(2,2,2-trifluoroethyl)pyrazol-4-yl]phenyl}-3-[(1R*,3R*)-4,4-difluoro-3-hydroxycyclohexyl]-2-imino-6-methylhexahydropyrimidin-4-one hydrochloride] the IC50 was 339 nM. Compound `C[C@H]1C[C@@H](N2C(=N)N[C@](C)(c3cccc(-c4cn(Cc5ccncc5)nn4)c3Cl)CC2=O)CCO1` [Example 120, (6S)-6-{2-Chloro-3-[1-(pyridin-4-ylmethyl)-1,2,3-triazol-4-yl]-phenyl}-2-imino-6-methyl-3-[(2S,4S)-2-methyltetrahydropyran-4-yl]hexahydropyrimidin-4-one trifluoroacetic acid salt] has an IC50 of 507 nM. Compound `C[C@@]1(c2cccc(-c3cccc(Cl)c3)c2Cl)CC(=O)N([C@H]2CCC(F)(F)[C@@H](O)C2)C(=N)N1` (relative stereo) [Example 21, (S)-6-[2,3′-Dichloro(1,1′-biphenyl)-3-yl]-3-[(1S*,3S*)-4,4-difluoro-3-hydroxycyclohexyl]-2-imino-6-methyltetrahydropyrimidin-4(1H)-one trifluoroacetic acid salt] has an IC50 of 726 nM. `C[C@@]1(c2cccc(-c3ccc(C4CC4)nc3)c2Cl)CC(=O)N([C@H]2CCC(F)(F)[C@@H](O)C2)C(=N)N1` (relative stereo) [Example 99, (6S)-6-[2-Chloro-3-(6-cyclopropyl-pyridin-3-yl)phenyl]-3-[(1S*,3S*)-4,4-difluoro-3-hydroxycyclohexyl]-2-imino-6-methylhexahydro-pyrimidin-4-one hydrochloride] was tested, and the IC50 was 1960 nM. `C[C@H]1C[C@@H](N2C(=N)N[C@](C)(c3cccc(-c4cn(Cc5ccccc5)nn4)c3Cl)CC2=O)CCO1` [Example 124, (6S)-6-[3-(1-Benzyl-1,2,3-triazol-4-yl)-2-chlorophenyl]-2-imino-6-methyl-3-[(2S,4S)-2-methyl-tetrahydropyran-4-yl]hexahydro-pyrimidin-4-one trifluoroacetic acid salt] gave an IC50 of 216 nM. Work on `CC(C)c1ccccc1-c1cccc([C@]2(C)CC(=O)N([C@H]3CCO[C@@H](C)C3)C(=N)N2)c1Cl` [Example 36, (6S)-6-[2-Chloro-3-(2-isopropyl-phenyl)phenyl]-2-imino-6-methyl-3-[(2S,4S)-2-methyltetrahydro-pyran-4-yl]hexahydropyrimidin-4-one trifluoroacetic acid salt] yielded an IC50 of 95 nM. Work on `C[C@H]1C[C@@H](N2C(=N)N[C@](C)(c3cccc(-c4cn(Cc5cccnc5)nn4)c3Cl)CC2=O)CCO1` [Example 117, (6S)-6-{2-Chloro-3-[1-(pyridin-3-ylmethyl)-1,2,3-triazol-4-yl]-phenyl}-2-imino-6-methyl-3-[(2S,4S)-2-methyltetrahydropyran-4-yl]hexahydropyrimidin-4-one trifluoroacetic acid salt] yielded an IC50 of 371 nM. Compound `C[C@@]1(c2cccc(-c3cccc(Cl)c3)c2Cl)CC(=O)N([C@H]2CCOC[C@@H]2O)C(=N)N1` (relative stereo) [Example 95, (6S)-6-[2-Chloro-3-(3-chloro-phenyl)phenyl]-3-[(3R*,4S*)-3-hydroxytetrahydropyran-4-yl]-2-imino-6-methylhexahydro-pyrimidin-4-one hydrochloride] has an IC50 of 323 nM. In the case of `C[C@H]1C[C@@H](N2C(=N)N[C@](C)(c3cccc(-c4cn(-c5cc(F)c(F)cc5F)nn4)c3Cl)CC2=O)CCO1` [Example 109, (6S)-6-{2-Chloro-3-[1-(2,4,5-trifluorophenyl)-1,2,3-triazol-4-yl]-phenyl}-2-imino-6-methyl-3-[(2S,4S)-2-methyltetrahydropyran-4-yl]hexahydropyrimidin-4-one hydrochloride], the IC50 is reported as 171 nM. `C[C@H]1C[C@@H](N2C(=N)N[C@](C)(c3cccc(-c4cccc(C(O)C(F)(F)F)c4)c3Cl)CC2=O)CCO1` (single isomer, unassigned) [Example 28, (6S)-6-(2-Chloro-3-{3-[(1S*)-2,2,2-trifluoro-1-hydroxyethyl]phenyl}-phenyl)-2-imino-6-methyl-3-[(2S,4S)-2-methyltetrahydropyran-4-yl]hexahydropyrimidin-4-one hydrochloride] was tested, and the IC50 was 26 nM. In the case of `C[C@@]1(c2cccc(-c3cc(C4CC4)no3)c2Cl)CC(=O)N([C@H]2CCC(F)(F)[C@@H](O)C2)C(=N)N1` (relative stereo) [Example 87, (6S)-6-[2-Chloro-3-(3-cyclopropyl-isoxazol-5-yl)phenyl]-3-[(1S*,3S*)-4,4-difluoro-3-hydroxycyclohexyl]-2-imino-6-methylhexahydro-pyrimidin-4-one hydrochloride], the IC50 is reported as 2910 nM. With `C[C@H]1C[C@@H](N2C(=N)N[C@](C)(c3cccc(-c4cn(CC(F)(F)F)nn4)c3Cl)CC2=O)CCO1` [Example 110, (6S)-6-{2-Chloro-3-[1-(2,2,2-trifluoroethyl)-1,2,3-triazol-4-yl]-phenyl}-2-imino-6-methyl-3-[(2S,4S)-2-methyltetrahydropyran-4-yl]hexahydropyrimidin-4-one hydrochloride] the IC50 was 13 nM. For `C[C@H]1C[C@@H](N2C(=N)N[C@](C)(c3cccc(-c4ccc(C#N)cc4)c3Cl)CC2=O)CCO1` [Example 60, 4-(2-Chloro-3-{(4S)-2-imino-4-methyl-1-[(2S,4S)-2-methyl-tetrahydropyran-4-yl]-6-oxo-hexahydropyrimidin-4-yl}phenyl)-benzonitrile trifluoroacetic acid salt], the IC50 was 297 nM. For `C[C@H]1C[C@@H](N2C(=N)N[C@](C)(c3cccc(-c4ccc(P(C)(C)=O)cc4F)c3Cl)CC2=O)CCC1(F)F` [Example 19, (6S)-6-[2-Chloro-3-(4-dimethyl-phosphoryl-2-fluorophenyl)-phenyl]-3-[(1S,3S)-4,4-difluoro-3-methylcyclohexyl]-2-imino-6-methylhexahydropyrimidin-4-one hydrochloride], the IC50 was 386 nM. `C[C@H]1C[C@@H](N2C(=N)N[C@](C)(c3cccc(-c4cccc(F)c4F)c3Cl)CC2=O)CCO1` [Example 50, (6S)-6-[2-Chloro-3-(2,3-difluoro-phenyl)phenyl]-2-imino-6-methyl-3-[(2S,4S)-2-methyltetrahydro-pyran-4-yl]hexahydropyrimidin-4-one trifluoroacetic acid salt] gave an IC50 of 84 nM. Work on `C[C@H]1C[C@@H](N2C(=N)N[C@](C)(c3cccc(-c4ccc(C5CC5)nc4)c3Cl)CC2=O)CCS1(=O)=O` (relative stereo) [Example 67, (6S)-6-[2-Chloro-3-(6-cyclopropyl-pyridin-3-yl)phenyl]-2-imino-6-methyl-3-[(2S*,4S*)-2-methyl-1,1-dioxothian-4-yl]hexahydro-pyrimidin-4-one hydrochloride] yielded an IC50 of 88 nM. For `C[C@@H]1C[C@H](N2C(=N)N[C@](C)(c3cccc(-c4ccc(Cl)cn4)c3Cl)CC2=O)CCS1(=O)=O` (relative stereo) [Example 74, (6S)-6-[2-Chloro-3-(5-chloro-pyridin-2-yl)phenyl]-2-imino-6-methyl-3-[(2R*,4R*)-2-methyl-1,1-dioxothian-4-yl]hexahydro-pyrimidin-4-one hydrochloride], the IC50 was 59 nM.

Same assay, conditions: Plasmodium falciparum, Erythrocyte; P. falciparum 3D7 in human erythrocytes, 72 h incubation, SYBR green fluorescence; read-out: IC50
`C[C@@H]1C[C@@H](N2C(=N)N[C@](C)(c3cccc(-c4ccc(OC(F)F)nc4)c3Cl)CC2=O)CCS1(=O)=O` (relative stereo) [Example 72, (6S)-6-{2-Chloro-3-[6-(difluoro-methoxy)pyridin-3-yl|phenyl}-2-imino-6-methyl-3-[(2R*,4S*)-2-methyl-1,1-dioxothian-4-yl]-hexahydropyrimidin-4-one hydrochloride] gave an IC50 of 913 nM. `CN1CCC(N2C(=N)N[C@](C)(c3cccc(-c4cccc(Cl)c4)c3Cl)CC2=O)CC1` [Example 90, (6S)-6-[2-Chloro-3-(3-chloro-phenyl)phenyl]-2-imino-6-methyl-3-(1-methylpiperidin-4-yl)-hexahydropyrimidin-4-one] was tested, and the IC50 was 122 nM.
